In patent publication US20090018111A1, “Novel Antimicrobial Medicament” (priority 2004, published 2009):
Read-outs that look alike come from different tables or passages of the source.

Legend:
Test in all cases: Sensitivity test (agar dilution)
E. cloacae GN7471 = type: cell-based, Enterobacter cloacae; details: Enterobacter cloacae, E. cloacae GN7471
Outline: (§1)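 Agar dilution on Mueller Hinton agar per the Japan Chemotherapeutic Society method, with two-fold serial dilutions of single drugs or combinations dissolved in water. Overnight 37° C cultures were suspended in BSG at ~10^6 CFU/ml and ~5 μl spotted.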

S. epidermidis IAM1296 = type: cell-based, Staphylococcus epidermidis; details: Staphylococcus epidermidis, S. epidermidis IAM1296
Outline: as §1

S. marcescens X 100 = type: cell-based, Serratia marcescens; details: Serratia marcescens, S. marcescens X 100
Outline: as §1

S. marcescens GN6473 = type: cell-based, Serratia marcescens; details: Serratia marcescens, S. marcescens GN6473
Outline: as §1

E. coli ML1410 = type: cell-based, Escherichia coli; details: Escherichia coli, E. coli ML1410
Outline: as §1

E. coli NIHJ JC-2 = type: cell-based, Escherichia coli; details: Escherichia coli, E. coli NIHJ JC-2
Outline: as §1

S. aureus 209P = type: cell-based, Staphylococcus aureus; details: Staphylococcus aureus, 209P, S. aureus 209P
Outline: as §1

[1] = system: S. aureus SP-7928 (homo-MRSA); type: cell-based, Staphylococcus aureus; details: Staphylococcus aureus, MRSA, S. aureus SP-7928 (homo-MRSA)
Outline: as §1

[2] = system: S. aureus MS94088 (hetero-MRSA); type: cell-based, Staphylococcus aureus; details: Staphylococcus aureus, MRSA, S. aureus MS94088 (hetero-MRSA)
Outline: as §1

C. freundii GN346 = type: cell-based, Citrobacter freundii; details: Citrobacter freundii, C. freundii GN346
Outline: as §1

E. faecalis ATCC19433 = type: cell-based, Enterococcus faecalis; details: Enterococcus faecalis, E. faecalis ATCC19433
Outline: as §1

P. vurgalis OX-19 = type: cell-based, Proteus vulgaris; details: Proteus vulgaris, P. vurgalis OX-19
Outline: as §1

P. vulgaris GN7919 = type: cell-based, Proteus vulgaris; details: Proteus vulgaris, P. vulgaris GN7919
Outline: as §1

[3] = GN7471, drug alone, read-out: MIC alone
[4] = IAM1296, drug alone, read-out: MIC alone
[5] = X100, drug alone, read-out: MIC alone
[6] = GN6473, drug alone, read-out: MIC alone
[7] = ML1410, drug alone, read-out: MIC alone
[8] = NIHJJC2, drug alone, read-out: MIC alone
[9] = Concomitant (AZT:SM = 1:1), read-out: MIC concomitant
[10] = drug alone, read-out: MIC alone
[11] = GN346, drug alone, read-out: MIC alone
[12] = ATCC19433, drug alone, read-out: MIC alone
[13] = OX19, drug alone, read-out: MIC alone
[14] = GN7919, drug alone, read-out: MIC alone
[15] = Concomitant (PIPC:SM = 1:1), read-out: MIC concomitant
[16] = Concomitant (PAPM:SM = 1:1), read-out: MIC concomitant
[17] = Concomitant (DRPM:SM = 1:1), read-out: MIC concomitant

Structure (SMILES): C[C@H]1[C@H](NC(=O)/C(=N\OC(C)(C)C(=O)O)c2csc(N)n2)C(=O)N1S(=O)(=O)O [AZT, aztreonam]
- MIC (E. cloacae GN7471; GN7471, Concomitant (AZT:SM = 1:1), read-out: MIC concomitant): 4 µg/mL
- MIC (E. cloacae GN7471; [3]): 16 µg/mL
- MIC (S. epidermidis IAM1296; IAM1296, Concomitant (AZT:SM = 1:1), read-out: MIC concomitant): 0.031 µg/mL
- MIC (S. epidermidis IAM1296; [4]): > 32 µg/mL
- MIC (S. marcescens X 100; X100, Concomitant (AZT:SM = 1:1), read-out: MIC concomitant): 0.031 µg/mL
- MIC (S. marcescens X 100; [5]): 0.063 µg/mL
- MIC (S. marcescens GN6473; GN6473, Concomitant (AZT:SM = 1:1), read-out: MIC concomitant): 0.25 µg/mL
- MIC (S. marcescens GN6473; [6]): 0.125 µg/mL
- MIC (E. coli ML1410; ML1410, Concomitant (AZT:SM = 1:1), read-out: MIC concomitant): 0.063 µg/mL
- MIC (E. coli ML1410; [7]): 0.125 µg/mL
- MIC (E. coli NIHJ JC-2; NIHJJC2, Concomitant (AZT:SM = 1:1), read-out: MIC concomitant): 0.063 µg/mL
- MIC (E. coli NIHJ JC-2; [8]): 0.063 µg/mL
- MIC (S. aureus 209P; [9]): 8 ng/mL
- MIC (S. aureus 209P; [10]): > 32000 ng/mL
- MIC [1, 9]: 2 µg/mL
- MIC [1, 10]: > 32 µg/mL
- MIC [2, 9]: 0.25 µg/mL
- MIC [2, 10]: > 32 µg/mL
- MIC (C. freundii GN346; GN346, Concomitant (AZT:SM = 1:1), read-out: MIC concomitant): 8 µg/mL
- MIC (C. freundii GN346; [11]): 0.5 µg/mL
- MIC (E. faecalis ATCC19433; ATCC19433, Concomitant (AZT:SM = 1:1), read-out: MIC concomitant): 1 µg/mL
- MIC (E. faecalis ATCC19433; [12]): > 32 µg/mL
- MIC (P. vurgalis OX-19; OX19, Concomitant (AZT:SM = 1:1), read-out: MIC concomitant): 0.004 µg/mL
- MIC (P. vurgalis OX-19; [13]): 0.004 µg/mL
- MIC (P. vulgaris GN7919; GN7919, Concomitant (AZT:SM = 1:1), read-out: MIC concomitant): 0.25 µg/mL
- MIC (P. vulgaris GN7919; [14]): 0.125 µg/mL

Structure (SMILES): CCN1CCN(C(=O)N[C@@H](C(=O)N[C@@H]2C(=O)N3[C@@H]2SC(C)(C)[C@@H]3C(=O)O)c2ccccc2)C(=O)C1=O [PIPC, piperacillin]
- MIC (E. cloacae GN7471; GN7471, Concomitant (PIPC:SM = 1:1), read-out: MIC concomitant): 8 µg/mL
- MIC (E. cloacae GN7471; [3]): 16 µg/mL
- MIC (S. epidermidis IAM1296; IAM1296, Concomitant (PIPC:SM = 1:1), read-out: MIC concomitant): 0.016 µg/mL
- MIC (S. epidermidis IAM1296; [4]): 2 µg/mL
- MIC (S. marcescens X 100; X100, Concomitant (PIPC:SM = 1:1), read-out: MIC concomitant): 0.25 µg/mL
- MIC (S. marcescens X 100; [5]): 0.5 µg/mL
- MIC (S. marcescens GN6473; GN6473, Concomitant (PIPC:SM = 1:1), read-out: MIC concomitant): 4 µg/mL
- MIC (S. marcescens GN6473; [6]): > 32 µg/mL
- MIC (E. coli ML1410; ML1410, Concomitant (PIPC:SM = 1:1), read-out: MIC concomitant): 0.125 µg/mL
- MIC (E. coli ML1410; [7]): 2 µg/mL
- MIC (E. coli NIHJ JC-2; NIHJJC2, Concomitant (PIPC:SM = 1:1), read-out: MIC concomitant): 0.063 µg/mL
- MIC (E. coli NIHJ JC-2; [8]): 0.25 µg/mL
- MIC (S. aureus 209P; [15]): 4 ng/mL
- MIC (S. aureus 209P; [10]): 250 ng/mL
- MIC [1, 15]: 1 µg/mL
- MIC [1, 10]: > 32 µg/mL
- MIC [2, 15]: 0.125 µg/mL
- MIC [2, 10]: > 32 µg/mL
- MIC (C. freundii GN346; GN346, Concomitant (PIPC:SM = 1:1), read-out: MIC concomitant): 8 µg/mL
- MIC (C. freundii GN346; [11]): 1 µg/mL
- MIC (E. faecalis ATCC19433; ATCC19433, Concomitant (PIPC:SM = 1:1), read-out: MIC concomitant): 0.5 µg/mL
- MIC (E. faecalis ATCC19433; [12]): 2 µg/mL
- MIC (P. vurgalis OX-19; OX19, read-out: MIC alone, drug alone): 0.008 µg/mL
- MIC (P. vurgalis OX-19; OX19, read-out: MIC concomitant, Concomitant (PIPC:SM = 1:1)): 0.008 µg/mL
- MIC (P. vulgaris GN7919; GN7919, Concomitant (PIPC:SM = 1:1), read-out: MIC concomitant): 0.5 µg/mL
- MIC (P. vulgaris GN7919; [14]): > 32 µg/mL

Structure (SMILES): CC(=N)N1CC[C@H](SC2=C(C(=O)O)N3C(=O)[C@H]([C@@H](C)O)[C@H]3C2)C1 [PAPM, panipenem]
- MIC (E. cloacae GN7471; GN7471, Concomitant (PAPM:SM = 1:1), read-out: MIC concomitant): 0.125 µg/mL
- MIC (E. cloacae GN7471; [3]): 0.25 µg/mL
- MIC (S. epidermidis IAM1296; IAM1296, Concomitant (PAPM:SM = 1:1), read-out: MIC concomitant): 0.016 µg/mL
- MIC (S. epidermidis IAM1296; [4]): 0.5 µg/mL
- MIC (S. marcescens X 100; X100, Concomitant (PAPM:SM = 1:1), read-out: MIC concomitant): 0.125 µg/mL
- MIC (S. marcescens X 100; [5]): 0.25 µg/mL
- MIC (S. marcescens GN6473; GN6473, Concomitant (PAPM:SM = 1:1), read-out: MIC concomitant): 0.25 µg/mL
- MIC (S. marcescens GN6473; [6]): 0.5 µg/mL
- MIC (E. coli ML1410; ML1410, Concomitant (PAPM:SM = 1:1), read-out: MIC concomitant): 0.125 µg/mL
- MIC (E. coli ML1410; [7]): 0.5 µg/mL
- MIC (E. coli NIHJ JC-2; NIHJJC2, Concomitant (PAPM:SM = 1:1), read-out: MIC concomitant): 0.063 µg/mL
- MIC (E. coli NIHJ JC-2; [8]): 0.25 µg/mL
- MIC (S. aureus 209P; [16]): 4 ng/mL
- MIC (S. aureus 209P; [10]): 31 ng/mL
- MIC [1, 16]: 2 µg/mL
- MIC [1, 10]: > 32 µg/mL
- MIC [2, 16]: 0.25 µg/mL
- MIC [2, 10]: 0.5 µg/mL
- MIC (C. freundii GN346; GN346, Concomitant (PAPM:SM = 1:1), read-out: MIC concomitant): 0.25 µg/mL
- MIC (C. freundii GN346; [11]): 0.5 µg/mL
- MIC (E. faecalis ATCC19433; ATCC19433, Concomitant (PAPM:SM = 1:1), read-out: MIC concomitant): 1 µg/mL
- MIC (E. faecalis ATCC19433; [12]): 2 µg/mL
- MIC (P. vurgalis OX-19; OX19, Concomitant (PAPM:SM = 1:1), read-out: MIC concomitant): 0.063 µg/mL
- MIC (P. vurgalis OX-19; [13]): 1 µg/mL
- MIC (P. vulgaris GN7919; GN7919, Concomitant (PAPM:SM = 1:1), read-out: MIC concomitant): 0.5 µg/mL
- MIC (P. vulgaris GN7919; [14]): 1 µg/mL

Structure (SMILES): C[C@@H](O)[C@H]1C(=O)N2C(C(=O)O)=C(S[C@@H]3CN[C@H](CNS(N)(=O)=O)C3)[C@H](C)[C@H]12 [DRPM, doripenem]
- MIC (E. cloacae GN7471; GN7471, Concomitant (DRPM:SM = 1:1), read-out: MIC concomitant): 0.031 µg/mL
- MIC (E. cloacae GN7471; [3]): 0.031 µg/mL
- MIC (S. epidermidis IAM1296; IAM1296, Concomitant (DRPM:SM = 1:1), read-out: MIC concomitant): 0.031 µg/mL
- MIC (S. epidermidis IAM1296; [4]): 0.5 µg/mL
- MIC (S. marcescens X 100; X100, Concomitant (DRPM:SM = 1:1), read-out: MIC concomitant): 0.031 µg/mL
- MIC (S. marcescens X 100; [5]): 0.031 µg/mL
- MIC (S. marcescens GN6473; GN6473, Concomitant (DRPM:SM = 1:1), read-out: MIC concomitant): 0.063 µg/mL
- MIC (S. marcescens GN6473; [6]): 0.063 µg/mL
- MIC (E. coli ML1410; ML1410, Concomitant (DRPM:SM = 1:1), read-out: MIC concomitant): 0.031 µg/mL
- MIC (E. coli ML1410; [7]): 0.031 µg/mL
- MIC (E. coli NIHJ JC-2; NIHJJC2, Concomitant (DRPM:SM = 1:1), read-out: MIC concomitant): 0.016 µg/mL
- MIC (E. coli NIHJ JC-2; [8]): 0.016 µg/mL
- MIC (S. aureus 209P; [17]): 4 ng/mL
- MIC (S. aureus 209P; [10]): 16 ng/mL
- MIC [1, 17]: 1 µg/mL
- MIC [1, 10]: 32 µg/mL
- MIC [2, 17]: 0.25 µg/mL
- MIC [2, 10]: 2 µg/mL
- MIC (C. freundii GN346; GN346, Concomitant (DRPM:SM = 1:1), read-out: MIC concomitant): 0.063 µg/mL
- MIC (C. freundii GN346; [11]): 0.063 µg/mL
- MIC (E. faecalis ATCC19433; ATCC19433, Concomitant (DRPM:SM = 1:1), read-out: MIC concomitant): 1 µg/mL
- MIC (E. faecalis ATCC19433; [12]): 4 µg/mL
- MIC (P. vurgalis OX-19; OX19, Concomitant (DRPM:SM = 1:1), read-out: MIC concomitant): 0.031 µg/mL
- MIC (P. vurgalis OX-19; [13]): 0.031 µg/mL
- MIC (P. vulgaris GN7919; GN7919, Concomitant (DRPM:SM = 1:1), read-out: MIC concomitant): 0.063 µg/mL
- MIC (P. vulgaris GN7919; [14]): 0.125 µg/mL
